Measured values reported in patent US20260318918A1, “CANCER DIAGNOSTICS AND TREATMENT BY MEANS OF PRMT5 INHIBITOR” (ARGONAUT THERAPEUTICS LIMITED, priority 2022, published 2026).

Legend:
Type in all cases: cell-based
[1] = test system: T-47D cell line (breast cancer); experiment: MTT cell viability assay, T-47D (breast cancer), CRISPR knock-out; conditions: 8 days; for sensitivity to PRMT5 inhibition (cell viability) of cells lacking E2F1: E2F1 deleted by CRISPR; for sensitivity to PRMT5 inhibition (cell viability) of cells lacking pRb: pRb deleted by CRISPR
Description: (§1) T-47D cells were maintained in growth medium (RPMI 1640 supplemented with 10% v/v heat inactivated fetal bovine serum and cultured at 37° C., 5% CO2, U2OS, MCF7 and HCT116 cells were maintained in growth medium (DMEM supplemented with 10% v/v heat inactivated fetal bovine serum) and cultured at 37° C., 5% CO2. Under assay conditions, cells were incubated in assay medium (RPMI 1640 or […] supplemented with 10% v/v heat inactivated fetal bovine serum and 100 units/mL penicillin-streptomycin) at 37° C. under 5% CO2. For the assessment of the effect of compounds on the proliferation of the cancer cell lines, exponentially growing cells were plated into 96-well plates overnight at a density of 1,000 cells/well in a final volume of 100 μl of cell growth medium. The next day the cells were dosed with compounds (T-992, GSK3326595, LLY-283, PF-06939999 and JNJ64619178) (quadruplicate ten-point 5-fold serial dilutions in DMSO), beginning at 100 μM. After addition of compounds, assay plates were incubated for 8 days at 37° C., 5% CO2, relative humidity 90%. NAD(P)H-dependent cellular oxidoreductase enzyme activity was measured by adding 100 μl thiazolyl blue tetrazolium bromide (MTT: Sigma-Aldrich) to the wells at a final concentration of 5 μM and incubated for 2 h at 37° C. Next, media was discarded from the wells and the formazan crystals were dissolved in 100 μl DMSO by shaking for 15 min. Absorbance was read on the Omega FLUOstar plate reader (BMG Labtech Ltd, Ortenberg, Germany) at a wavelength of 584 nm. Data were analysed and IC50 values determined using MARs data analysis software (BMG Labtech Ltd, Ortenberg, Germany). The concentration of compound inhibiting cell viability by 50% was determined using a 4-parametric fit of the normalized dose response curves.
(§2) pSpCas9(BB)-2A-Puro (Addgene plasmid ID: 48139) was used for the generation of E2F1 and pRb knock out cell lines using CRISPR-Cas9 technology. Cell lines were generated as detailed in (Ran et al., 2013).

[2] = test system: HCT116 cell line (colorectal cancer); experiment: MTT cell viability assay, HCT116 (colorectal cancer), CRISPR knock-out; conditions: E2F1 deleted by CRISPR, 8 days
Description: as §1, §2

[3] = test system: U20S cell line (bone cancer); experiment: MTT cell viability assay, U20S (bone cancer), CRISPR knock-out; conditions: pRb deleted by CRISPR, 8 days
Description: as §1, with “The next day the cells were dosed with compounds (T-992, GSK3326595, LLY-283, PF-06939999 and JNJ64619178) (quadruplicate ten-point 5-fold serial dilutions in DMSO), beginning at 100 μM. After addition of compounds, assay plates were incubated for 8 days at 37° C., 5% CO2, relative humidity 90%.” left out, “Next, media was discarded from the wells and the formazan crystals were dissolved in 100 μl DMSO by shaking for 15 min.” left out, “curves. […]” for “curves.”

Compound | sensitivity to PRMT5 inhibition (cell viability) of cells lacking E2F1 [1] | sensitivity to PRMT5 inhibition (cell viability) of cells lacking E2F1 [2] | sensitivity to PRMT5 inhibition (cell viability) of cells lacking pRb [1] | sensitivity to PRMT5 inhibition (cell viability) of cells lacking pRb [3]
Nc1nc2cc(CC[C@H]3C[C@@H](n4ccc5c(N)ncnc54)[C@H](O)[C@@H]3O)ccc2cc1Br [JNJ64619178] | less sensitive | less sensitive | – | –
O[C@@H]1CO[C@H]2[C@@H]1OC[C@@H]2O [AT101] | less sensitive | less sensitive | more sensitive | more sensitive
Nc1ncnc2c1ccn2[C@@H]1O[C@H]([C@H](O)c2ccccc2)[C@@H](O)[C@H]1O [LLY-283] | less sensitive | less sensitive | – | –
CC(=O)N1CCC(Nc2cc(C(=O)NC[C@H](O)CN3CCc4ccccc4C3)ncn2)CC1 [GSK3326595] | less sensitive | less sensitive | more sensitive | –
Cc1ncnc2c1ccn2[C@@H]1C[C@H](Oc2cc(C(F)F)c(F)c3c2CNCC3)[C@@H](O)[C@H]1O [PF06939999] | less sensitive | less sensitive | more sensitive | –
